Entries after “also recorded” stand apart in the source; their conditions may differ.
What was measured:
human islets = assay: Immunohistochemical staining of cultured human islets; assay type: cell-based; conditions: islets in culture for 2 months, Isx for 2 days (FIG. 1E)
Method: FIGS. 1A-E. Isx (LSH-1) induces expression of insulin and transcription factors in primary cultured human islets. (FIG. 1A) Primary human islets that had been cultured in RPMI 160 for 6 months were treated with vehicle or 40 μM Isx for 1 or 2 d. Expression of human insulin and glucagon genes was assessed by Taqman quantitative RT-PCR. (FIG. 1B) Insulin secretion measured by ELISA over 24 h from islets treated with Isx or vehicle for 1 or 2 d. (FIG. 1C) Total insulin content of islets cultured for 3 mo and fresh islets, each treated for 48 h with Isx or DMSO. (FIG. 1D) Time course of pancreatic gene induction in islets cultured for 1 year treated with DMSO (8 days) or 40 μM Isx for 2, 4 or 8 days. (FIG. 1E) Immunohistochemical staining using antibodies against insulin, BETA2, Neurogenin3 (Ngn3) and MafA of islets cultured for 2 months and treated with Isx or vehicle for 48 h. Nuclei were stained with DAPI.

MIN6 cells = assay: Immunoblotting of MIN6 whole cell lysates; assay type: cell-based, mouse
Method: FIGS. 2[…]-1) activates insulin expression and improves β cell function in MIN6 cells. (FIG. 2A) Dose-response relationship of MIN6 cells treated with 5-80 μM Isx for 24 h or DMSO (0.08%-similar to the highest concentration of Isx). Whole cell lysates (40 μg) were subjected to immunoblotting using antibodies against BETA2NeuroD1, MafA, PDX-1, pERK1/2 (pT183/[…]), acetylated histones […] and ACH3K9 and total histone H3. (FIG. 2B) Quantitative RT-PCR of murine insulin1 and insulin2 gene expression in MIN6 cells treated with Isx for 24 h as in FIG. 2A. […] (FIG. 2D) Insulin content measured by ELISA in MIN6 cells treated with Isx for 24 or 48 h. (FIG. 2E) GSIS induced by glucose, amino acids (AA) and Exendin-4 (Ex-4) singly or in combination in MIN6 cells pretreated with Isx for 48 h. FIGS. 4[…]-1) is a HAT activator. (FIG. 4A) Immunoblots of acetylated histones in MIN6 cells pretreated with the indicated inhibitors for 16 h and then treated with vehicle or Isx. (FIGS. 4B-C) HDAC (FIG. 4B) and HAT (FIG. 4C) activities in 50 μg of nuclear extract protein from MIN6 cells treated with Isx or DMSO for 24 h. Trichostatin A (TSA; 2 μM) was added at as a positive control. HeLa nuclear extract also was included as a positive control. […] Statistical analysis was performed using Student's t test as in FIGS. 1A-E. *P<0.05; **P<0.01. (FIG. 4G) Simplified view of the actions of Isx. FIG. 6. Time course of […]-1) treatment in MIN6 cells. Immunoblotting of whole cell extracts from MIN6 cells grown for 24 h in complete DMEM containing […] and treated with 20 μM Isx for from 15 min to 24 h. The control (0 min) was treated with DMSO for 24 h. MIN6 cells were cultured in DMEM (Gibco), containing 25 mM glucose, 10% fetal bovine serum, 10 mM Hepes pH 7.4, 10.2 mM L-glutamine, […] sodium pyruvate, 2.5 mM β-mercaptoethanol, 100 U/ml penicillin and 100 μg/ml streptomycin at 37° C. in 10% CO2. Human islets were obtained from the ICR Basic Science Islet Distribution and from the University of Alabama, Birmingham Islet Resource Facility and were cultured in RPMI 1640 with 11 mM glucose for up to 1 year. The medium was changed twice weekly and the islets were subcultured when they reached 90% confluence. For Isx treatments, cells were incubated in medium containing either Isx or the equivalent volume of DMSO vehicle (0.04%). To measure GSIS, cells were placed in Krebs-Ringer bicarbonate/Hepes containing 0.1% bovine serum albumin and 2 mM glucose for 2 h, and stimulated for 15 min with 20 mM glucose, a 1× amino-acid mixture (concentrations as in DMEM), or 50 nM Exendin-4.

[1] = 24 h exposure, 5-80 μM Isx (FIG. 2A)

With O=C(NC1CC1)c1cc(-c2cccs2)on1 [Isx, N-cyclopropyl-5-(thiophen-2-yl)isoxazole-3-carboxamide] the “Ngn3, BETA2, and insulin immunostaining” value (human islets) was “obvious increase”, the “ERK1/2 activation, time course” value (MIN6 cells; 20 μM Isx, 15 min to 24 h (FIG. 6)) was “biphasic effect” and the MafA expression (MIN6 cells; [1]) was “increased substantially”. For the same compound, the PDX-1 expression (MIN6 cells; [1]) was “little if any change”, the “immunoreactive BETA2” value (MIN6 cells; [1]) was “increased at all concentrations” and the “Acetylation of histone H3 and H4” value (MIN6 cells; MIN6 cells treated with Isx (FIG. 2A, FIG. 4A)) was “increased; also recorded: marked effect”. For the same compound, the ERK1/2 phosphorylation (MIN6 cells; following 24 h of exposure) was “detectable”.
